Source: patent publication US10028942B2 (priority 2013, dated 2018)
Where two headings read alike, the source gives them in different places.

Assays:
[1] = target: T1, DLK (Homo sapiens, UniProt Q12852); assay: biochemical
T1 sequence (Q12852 1-520): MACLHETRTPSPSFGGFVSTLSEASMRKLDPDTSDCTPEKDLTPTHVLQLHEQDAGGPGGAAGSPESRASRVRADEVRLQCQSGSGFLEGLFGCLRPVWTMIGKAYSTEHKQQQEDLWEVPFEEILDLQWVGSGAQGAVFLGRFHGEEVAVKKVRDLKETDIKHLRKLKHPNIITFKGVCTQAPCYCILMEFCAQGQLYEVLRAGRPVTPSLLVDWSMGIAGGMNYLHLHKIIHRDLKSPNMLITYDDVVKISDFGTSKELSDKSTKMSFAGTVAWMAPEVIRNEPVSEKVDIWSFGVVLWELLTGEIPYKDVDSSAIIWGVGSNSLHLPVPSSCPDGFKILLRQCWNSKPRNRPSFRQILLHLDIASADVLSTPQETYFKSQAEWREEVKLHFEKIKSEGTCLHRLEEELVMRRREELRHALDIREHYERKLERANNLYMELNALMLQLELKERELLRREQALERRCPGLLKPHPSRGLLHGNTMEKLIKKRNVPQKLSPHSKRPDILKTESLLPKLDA

[2] = target: T1, DLK; conditions: read-out: DLK (Ki) μM; TR-FRET; 5 nM GST-tagged DLK (catalytic domain aa 1-520), 40 nM HIS-MKK4 K131M substrate, 30 μM ATP, 60 minutes

Ki [1]	Ki [2]	Compound
> 1000 nM		CC(C)n1nc(-c2cnc3c(c2)C(C)(C)C(=O)N3)cc1C1CN(C2COC2)C1 [Compound 61, 5-(1-isopropyl-5-(1-(oxetan-3-yl)aze-tidin-3-yl)-1H-pyrazol-3-yl)-3,3-dimeth-yl-1H-pyrrolo[2,3-b]pyridin-2(3H)-one]
> 1000 nM		CC(C)n1nc(-c2cnc3c(c2)CC(=O)N3)cc1C1CCN(C2COC2)CC1 [Compound 73, 5-(1-isopropyl-5-(1-(oxetan-3-yl)pipe-ridin-4-yl)-1H-pyrazol-3-yl)-1H-pyrro-lo[2,3-b]pyridin-2(3H)-one]
> 1000 nM		CC(C)n1nc(-c2cnc3c(c2)C(C)(C)C(=O)N3)cc1C1CCN(C2COC2)CC1 [Compound 80, 5-(1-isopropyl-5-(1-(oxetan-3-yl)pipe-ridin-4-yl)-1H-pyrazol-3-yl)-3,3-di-methyl-1H-pyrrolo[2,3-b]pyridin-2 (3H)-one]
> 1000 nM		Cc1cc(-c2cc(C3CCN(C4COC4)CC3)n(C(C)C)n2)cnc1N [Compound 82, 5-(1-isopropyl-5-(1-(oxetan-3-yl)pipe-ridin-4-yl)-1H-pyrazol-3-yl)-3-meth-ylpyridin-2-amine]
> 1000 nM		CC(C)n1nc(-c2cnc3c(c2)OCCN3)cc1C1CCN(C2COC2)CC1 [Compound 94, 7-(1-isopropyl-5-(1-(oxetan-3-yl)pipe-ridin-4-yl)-1H-pyrazol-3-yl)-3,4-di-hydro-2H-pyrido[3,2-b][1,4]oxazine]
> 1000 nM		CC(C)n1nc(-c2cnc3c(c2)CCCN3)cc1C1CCN(C2COC2)CC1 [Compound 96, 6-(1-isopropyl-5-(1-(oxetan-3-yl)pipe-ridin-4-yl)-1H-pyrazol-3-yl)-1,2,3,4-tetahydro-1,8-naphthyridine]
	0.012 µM	Nc1ncc(-c2cc([C@H]3[C@@H]4CN(C5COC5)C[C@@H]43)n(C3CC3)n2)cc1C(F)F [Compound 170, 5-(1-cyclopropyl-5-((1R,5S,6r)-3-(oxe-tan-3-yl)-3-azabicyclo[3.1.0]hexan-6-yl)-1H-pyrazol-3-yl)-3-(difluoro-methyl)pyridin-2-amine]
	0.016 µM	Nc1ncc(-c2cc([C@H]3[C@@H]4CN(C5COC5)C[C@@H]43)n(C3CCCC3)n2)cc1C(F)F [Compound 171, 5-(1-cyclopentyl-5-((1R,5S,6r)-3-(oxe-tan-3-yl)-3-azabicyclo[3.1.0]hexan-6-yl)-1H-pyrazol-3-yl)-3-(difluoro-methyl)pyridin-2-amine]
	0.0092 µM	CC(C)n1nc(-c2cnc(N)c(C(C)(F)F)c2)cc1[C@H]1[C@@H]2CN(C3COC3)C[C@@H]21 [Compound 175, 3-(1,1-difluoroethyl)-5-(1-isopropyl-5-((1R,5S,6r)-3-(oxetan-3-yl)-3-aza-bicyclo[3.1.0]hexan-6-yl)-1H-pyrazol-3-yl)pyridin-2-amine]

More lines, now with the values behind:

Compound	Ki [1]	Ki [2]
Cc1c[nH]c2ncc(-c3cc(C4CCOC4)n(CC4CC4)n3)cc12 (racemic) [Compound 13, 5-(1-(cyclopropylmethyl)-5-(tetrahydrofuran-3-yl)-1H-pyrazol-3-yl)-3-methyl-1H-pyrrolo[2,3-b]pyridine]	29 nM	
CC(C)n1nc(-c2cnc(N)c(C(F)F)c2)cc1C(C)(C)C#N [Compound 5, 2-(3-(6-amino-5-(difluoromethyl)pyridin-3-yl)-1-isopropyl-1H-pyrazol-5-yl)-2-methylpropanenitrile]	> 1000 nM	
Nc1ncc(-c2cc(C3CCOCC3)n(C3CC(F)(F)C3)n2)cc1F [Compound 37, 5-(1-(3,3-difluorocyclobutyl)-5-(tetra-hydro-2H-pyran-4-yl)-1H-pyrazol-3-yl)-3-fluoropyridin-2-amine]	> 1000 nM	
CC(C)n1nc(-c2cnc3[nH]cnc3c2)cc1C1CN(C2COC2)C1 [Compound 62, 6-(1-isopropyl-5-(1-(oxetan-3-yl)aze-tidin-3-yl)-1H-pyrazol-3-yl)-3H-imi-dazo[4,5-b]pyridine]	> 1000 nM	
CC(C)n1nc(-c2cnc3[nH]cnc3c2)cc1C1CCN(C2COC2)CC1 [Compound 79, 6-(1-isopropyl-5-(1-(oxetan-3-yl)pipe-ridin-4-yl)-1H-pyrazol-3-yl)-3H-imi-dazo[4,5-b]pyridine]	> 1000 nM	
COC1(c2cc(-c3cnc(N)c(C(F)(F)F)c3)nn2C(C)C)CCN(C2COC2)CC1 [Compound 103, 5-(1-isopropyl-5-(4-methoxy-1-(oxetan-3-yl)piperidin-4-yl)-1H-pyrazol-3-yl)-3-(trifluoromethyl)pyridin-2-amine]	> 1000 nM	
CC1(Cn2nc(-c3cnc(N)c(Cl)c3)cc2[C@H]2[C@@H]3CN(CC(F)(F)F)C[C@@H]32)COC1 [Compound 112, 3-chloro-5-(1-((3-methyloxetan-3-yl)methyl)-5-((1R,5S,6r)-3-(2,2,2-trifluoro-ethyl)-3-azabicyclo[3.1.0]hexan-6-yl)-1H-pyrazol-3-yl)pyridin-2-amine]	> 1000 nM	
Nc1ncc(-c2cc([C@H]3[C@@H]4CN(C5COC5)C[C@@H]43)n(CC3CC3)n2)cc1C(F)F [Compound 169, 5-(1-(cyclopropylmethyl)-5-((1R,5S,6r)-3-(oxetan-3-yl)-3-azabicyclo[3.1.0]hexan-6-yl)-1H-pyrazol-3-yl)-3-(di-fluoromethyl)pyridin-2-amine]		0.041 µM
Nc1ncc(-c2cc([C@H]3[C@@H]4CN(C5COC5)C[C@@H]43)n(CC3CC3)n2)cc1OC(F)F [Compound 173, 5-(1-(cyclopropylmethyl)-5-((1R,5S,6r)-3-(oxetan-3-yl)-3-azabicyclo[3.1.0]hexan-6-yl)-1H-pyrazol-3-yl)-3-(difluoromethoxy)pyridin-2-amine]		0.0039 µM
Nc1ncc(-c2cc([C@H]3[C@@H]4CN(C5COC5)C[C@@H]43)n(CC(F)(F)F)n2)cc1C(F)(F)F [Compound 174, 5-(5-((1R,5S,6r)-3-(oxetan-3-yl)-3-azabicyclo[3.1.0]hexan-6-yl)-1-(2,2,2-trifluoroethyl)-1H-pyrazol-3-yl)-3-(trifluoromethyl)pyridin-2-amine]		0.0016 µM
CC1(Cn2nc(-c3cnc(N)c(C(F)(F)F)c3)cc2[C@H]2[C@@H]3CN(C4COC4)C[C@@H]32)CC1 [Compound 177, 5-(1-((1-methylcyclopropyl)methyl)-5-((1R,5S,6r)-3-(oxetan-3-yl)-3-aza-bicyclo[3.1.0]hexan-6-yl)-1H-pyrazol-3-yl)-3-(trifluoromethyl)pyridin-2-amine]		0.00067 µM
